According to patent publication US20240108654A1, “COMBINATION OF A T CELL THERAPY AND A DGK INHIBITOR” (Juno Therapeutics, Inc., priority 2021, published 2024):

Key:
Assay type in all cases: cell-based, human
[1] = tested on: anti-CD19 CAR-expressing T cells; test: T cell proliferation during acute stimulation with plate-bound anti-CAR anti-idiotypic antibody (Incucyte confluence); settings: 30 μg/mL plate-bound anti-idiotypic antibody, seven days, compound present during stimulation
Method: T cell proliferation during stimulation with 30 μg/mL of plate-bound anti-CAR anti-idiotypic antibody in the presence of Compound 17 was monitored for seven days using an Incucyte imaging system. Cell proliferation was monitored by analyzing the occupied area (% confluence) of cell images over time; as cells proliferate, the confluence increases.
(§1) Triplicate values for cell compositions manufactured from the two different healthy donors are shown.

[2] = tested on: anti-CD19 CAR-expressing T cells; test: Cytokine production (MSD) of CAR-T cells concurrently treated during chronic stimulation, 2D co-culture; settings: concurrent treatment during chronic stimulation; 48 hours 2D co-culture with K562.CD19, Granta-519, Raji
Method: (§2) To simulate conditions of chronic stimulation, approximately 20,000 anti-CD19 CAR-expressing T cells of a combined CAR-T cell composition produced as described in Example 1 from two healthy adult donors were incubated with 30 μg/mL of plate-bound CAR-specific anti-idiotypic antibody (see, e.g., WO2018/023100) at 37° C. for a period of seven days. During this seven-day period, engineered CAR T cells were concurrently treated with Compound 17 (0.1-1000 nM) or a vehicle control added at day 0.
(§3) Stimulated CAR T cells were then re-challenged with CD19-expressing tumor cells or tumor spheroids in the absence of Compound 17, and cytolytic activity and cytokine production were assessed.
(§4) Supernatant was collected after 48 hours from the above co-cultures of chronically stimulated CAR-expressing T cells and CD19-expressing tumor cells. Cytokine production was measured from the supernatant by meso scale discovery (MSD) analysis of the collected cell supernatants. […] Duplicate values for cell compositions manufactured from the two different healthy donors are shown.

[3] = tested on: anti-CD19 CAR-expressing T cells; test: Cytolytic function of CAR-T cells co-cultured with CD19-expressing lymphoma cells in presence of compound; settings: co-culture with K562.CD19, Granta-519 and Raji cells, 2.5:1 effector:target, compound present
Method: The cytolytic function of T cells treated with Compound 17 was assessed following co-culture of the combined CAR-T cell composition with various CD19-expressing lymphoma cells at a 2.5:1 effector:target ratio in the presence of Compound 17. The target lymphoma cells were labeled with NucLight Red (NLR) to permit their tracking by microscopy. Cytolytic activity was assessed by measuring the loss of viable target cells over a period of four to seven days, as determined by red fluorescent signal (using the IncuCyte® Live Cell Analysis System, Essen Bioscience).
as §1

[4] = tested on: anti-CD19 CAR-expressing T cells; test: Rescue treatment of chronically stimulated CAR-T cells: cytokine production (MSD), 2D co-culture; settings: 48 hours 2D co-culture with K562.CD19, Granta-519, Raji
Method: (§5) Anti-CD19 CAR-expressing T cells, produced as described in Example 1, were chronically stimulated with plate-bound CAR-specific anti-idiotypic antibody for seven days as described in Example 2, but in the absence of Compound 17 during chronic stimulation. Instead, chronically stimulated CAR T cells were treated with Compound 17 during re-challenge with CD19-expressing tumor cells, after which cytolytic activity and cytokine production were assessed.
as §4

[5] = tested on: anti-CD19 CAR-expressing T cells; test: Cytokine production (MSD) in co-culture of CAR-T cells and CD19-expressing tumor cells in presence of compound; settings: 48 hours co-culture with K562.CD19, Granta-519, Raji cells, compound present
Method: Supernatant was collected after 48 hours from the above co-cultures of CAR-expressing T cells and CD19-expressing tumor cells in the presence of Compound 17. Cytokine production was measured from the supernatant by meso scale discovery (MSD) analysis of the collected cell supernatants.

[6] = tested on: anti-CD19 CAR-expressing T cells; test: Rescue treatment of chronically stimulated CAR-T cells: cytokine production (MSD), 3D tumor spheroids; settings: five days 3D co-culture with A549.CD19 and Granta-519 spheroids
Method: as §5
as §4, with “at day 5” for “after 48 hours”, “tumor spheroid cultures with” for “co-cultures of”, “T” for “T cells and CD19-expressing tumor”

[7] = tested on: anti-CD19 CAR-expressing T cells; test: Cytolytic activity of CAR-T cells concurrently treated during chronic stimulation, 2D re-challenge with CD19-expressing lymphoma cells; settings: concurrent treatment during chronic stimulation; 2D re-challenge with K562.CD19, Granta-519, Raji without compound; higher concentrations
Method: as §2, §3
To assess cytolytic function, the stimulated CAR-T cell composition was co-cultured with various CD19-expressing lymphoma cells at a 2.5:1 effector:target ratio. The tumor cells were engineered to express NucLight Red (NLR) and tumor cell number was monitored by Incucyte®. […] Duplicate values for cell compositions manufactured from the two different healthy donors are shown.

[8] = tested on: anti-HPV16 eTCR T cells; test: Rescue treatment of chronically stimulated eTCR T cells: cytolytic function against HPV-expressing CaSki cells; settings: 100 nM compound during co-culture, 2.5:1 effector:target; eTCR cells pre-stimulated with 10 or 20 μg/mL anti-Vbeta
From the text: Primary human CD4+ and CD8+ T cells were isolated from healthy donors by immunoaffinity-based methods. The isolated CD4+ and CD8+ T cells were combined and stimulated with an anti-CD3/anti-CD28 reagent, and then were transduced with a lentiviral vector encoding an anti-human papillomavirus 16 (anti-HPV16) eTCR. The nucleotide sequences encoding the beta chain and the alpha chain of the eTCR were separated by a sequence encoding a 2A ribosome skip element. Following transduction, the cells were cultured in media containing human serum and cytokines for 9-10 days prior to further assessment. To assess the effects of rescue treatment with Compound 17 on cytolytic function, eTCR cells were stimulated for six days using 10 μg/mL or 20 μg/mL plate-bound antibody against the TCR Vbeta chain in the absence of Compound 17. Following chronic stimulation, the eTCR-T cells were co-cultured with HPV-expressing CaSki cells at a 2.5:1 effector:target ratio in the presence of Compound 17 at 100 nM. As a control, chronically stimulated eTCR cells were co-cultured with CaSki cells in the absence of Compound 17. The CaSki cells were transduced with NucLight Red (NLR) and tumor cell number was monitored by Incucyte®.

[9] = tested on: anti-CD19 CAR-expressing T cells; test: Rescue treatment of chronically stimulated CAR-T cells: cytolytic activity, 3D tumor spheroids; settings: rescue treatment during co-culture; A549.CD19 and Granta-519 spheroids, day 9
Method: as §5
Cytolytic activity also was assessed in CD19-expressing tumor spheroid cultures incubated with chronically stimulated CAR-T cells in the presence of DGKi. A549 CD19+ tumor spheroids or Granta-519 tumor spheroids were incubated with the anti-CD19 CAR-expressing T cells at an effector to target ratio of 1:2 for up to 14 days in the presence of DGKi (0-1000 nM). The tumor spheroids were engineered to express a red fluorescent dye to permit monitoring of tumor cell lysis by microscopy during the assay. Cytolytic activity was assessed by monitoring fluorescence over time, and the tumor volume (normalized to time zero) was measured as the number of red calibrated units (RCU)×μm^2 area. […] Duplicate values for cell compositions manufactured from the two different healthy donors are shown.

[10] = tested on: anti-CD19 CAR-expressing T cells; test: Activation phenotype of CAR-T cells chronically stimulated with concurrent compound treatment; settings: seven-day chronic stimulation, concurrent compound 0.1-1000 nM
Method: as §2

CC[C@H]1CN([C@@H](CC)c2ccc(C(F)(F)F)cc2)[C@H](CC)CN1c1nc(=O)n(C)c2ccc(C#N)nc12 [Compound 17, 4-((2S,5R)-2,5-diethyl-4-((S)-1-(4-(trifluoromethyl)phenyl)propyl)piperazin-1-yl)-1-methyl-2-oxo-1,2-dihydropyrido[3,2-d]pyrimidine-6-carbonitrile]
T cell proliferation (% confluence) [1]: did not affect T cell proliferation
production of IFNγ, IL-2 and TNFα in supernatant [2]: dose-dependent increase in production of all three cytokines
cytolytic function (percent specific lysis) [3]: did not affect cytolytic function
production of IFNγ, IL-2 and TNFα in supernatant [4]: dose-dependent increase in production of all three cytokines
production of IFNγ, IL-2 and TNFα in supernatant [5]: dose-dependent increase in production of all three cytokines
production of IFNγ, IL-2 and TNFα in supernatant [6]: dose-dependent increase in production of all three cytokines
CAR-T cell cytolytic activity (tumor cell number) [7]: decreased the cytolytic activity
cytolytic function of chronically stimulated eTCR cells (CaSki tumor cell number) [8]: able to improve cytolytic function
CAR-T cell cytolytic activity (normalized tumor volume) [9]: improved the cytolytic activity
populations of highly activated CAR-T cells (CD69, PD-1 high) [10]: increased populations of highly activated CAR-T cells
